Measured values: patent US7892764B2, “System for seizure suppression” (priority 2006, dated 2011)

Key:
acute hippocampal slices = test: Low Mg2+-induced injury of acute hippocampal slices, LDH release; type: cell-based; conditions: aCSF without Mg2+ plus 100 μM amiloride for 2 hr, medium collected 6 hr after incubation
Description: To determine whether ASIC blockade affects seizure-induced neuronal injury, we tested the effect of ASIC blockade on low Mg^2+-induced injury of acute hippocampal slices. 400 μm-thick coronal slices were cut and placed on a Millipore membrane in 6-well plates (2 slices in each well). Slices were randomly divided into three groups treated with the following different solutions (for 2 hr): oxygenated aCSF with normal Mg^2+; oxygenated aCSF without Mg^2+; oxygenated aCSF without Mg^2+ plus 100 μM amiloride. 100 μL medium was collected from each slice 6 hr following the incubation for the measurement of lactate dehydrogenase (LDH). The LDH value was then normalized to the maximal releasable LDH to give % of cell death. With aCSF containing normal Mg^2+, 6.2±0.9% of maximal LDH release was recorded. In the absence of Mg^2+, this value was increased to 13.0±2.2%. Addition of aniloride decreased relative LDH release to 6.0±0.4% (n=3).
LDH Assay. Lactate dehydrogenase (LDH) is a stable cytoplasmic enzyme present in all cells. […] LDH assays were performed using the Cytotoxicity Detection Kit (Cat#1644793, Roche Molecular Biochemicals) and a spectrophotometric mutiwell plate reader (SPECTRAmax, Molecular Devices). […] Absorbance at OD490 nm was measured 30 min after the reaction. Absorbance at a reference wavelength (OD620 nm) was subtracted from the measurement.

mouse hippocampal slices = test: Basal synaptic transmission: fEPSP in hippocampal CA1 region in the presence of Mg2+; type: cell-based; conditions: amiloride 100 μM
Description: FIG. 6. Representative field-EPSPs and summary data showing the lack of inhibition by amiloride on basal synaptic transmission. In the presence of Mg^2+ (1.0 mM), stimulation of Schaffer collaterals induced field excitatory postsynaptic potential (fEPSP) in the CA1 region of the hippocampus.
Preparation of hippocampal slices and brain slice recording. Hippocampal slices were obtained from 8- to 10-week-old mice. The protocol for brain-slice recording was approved by the Institutional Animal Care and Use Committee of Legacy Research. Animals were deeply anesthetized with isoflurane and decapitated. Brains were quickly removed and placed in ice-cold solution that contained: 125 mM sucrose, 2.5 mM KCl, 26 mM NaHCO3, 1.25 mM NaHPO4, 6.0 mM […], 0.5 mM CaCl2, and 10 mM glucose, and was saturated with 95% O2 and 5% CO2 (pH 7.4). […]
Following ˜60 min of incubation at room temperature, individual slices were transferred to a submerged slice chamber with a volume of 0.5 mL (Warner Instruments, Hamden, Conn.) and perfused with oxygenated aCSF (35° C.) at a rate of 3-4 mL/min. […] The population spike and the field excitatory postsynaptic potentials (fEPSP) were recorded in stratum pyramidale and striatum radiatum of hippocampal CA1 region, by stimulating Schaffer Collaterals.

NC(N)=NC(=O)c1nc(Cl)c(N)nc1N [amiloride, 3,5-diamino-6-chloro-N(diaminomethylidene)pyrazine-2-carboxamide]
relative LDH release (% of maximal releasable LDH, cell death) (acute hippocampal slices): 6.0±0.4% | effect on amplitude or slope of normal fEPSP (mouse hippocampal slices): did not affect
